“And” between values parts separate entries of the source, which are not always exact repeats. Equal values may be shown once.
How the values were obtained:
Type in all cases: cell-based, human
AGS cells [1] = assay: SA-β-Gal histochemical staining; settings: Fig. S4A
Procedure: SA-β-Gal activity was measured following two different approaches. (i) AGS, MKN45 and PANC1 cells (5 × 10^4) were seeded in 24-multiwell dishes and incubated overnight. […] For flow cytometry cell senescence detection, cells were tripsinized, fixed for 15 min with PFA 4% and stained with the CellEvent Senescense Green Flow Cytometry Assay Kit (C10840, Invitrogen) according to manufacturer’s instructions. CellEvent Senescense Green Probe was used at a 1:500 dilution and fluorescence was detected using the filter (Ex488nm/Em530/30) BL1 with a 4-laser Attune NxT Acoustic Cytometer (Thermo Fisher Scientific). […] After 3 h, the treatments were removed, new supplemented medium was added, and cells were incubated for an additional 24 h. Finally, SA-β-Gal staining was performed using the Senescence Cells Histochemical Staining Kit (CS0030-1KT) according to the manufacturer’s instructions.

PANC1 cells [2] = assay: ROS detection by confocal microscopy (DHE, MitoSox); settings: PANC1, 1 h treatment; H2O2 200 µM, CDDP 10 µM, I5 20 µM, I6 20 µM
Procedure: Tumor cells were seeded at a density of 3 × 10^5 cells in 15 µm 8-well IBIDI plates and incubated overnight. […] Subsequently, cells were stained with 10 μM of dihydroethidium (DHE, cytosolic O2^·- probe, Sigma-Aldrich) or with 5 μM of Mitosox (mitochondrial O2^·- probe, Sigma-Aldrich) for 15–30 min[79] and then visualized on a confocal microscope (Confocal LSM 710 Zeiss, Biomedical Research Institute Alberto Sols, IIBm-CSIC-UAM, Madrid, Spain). The image analysis was realized using the software program Image J.

AGS cells [3] = assay: Ratio GSH/GSSG, colorimetric kit; settings: AGS, C+ (positive control), relative to Control = 1
Procedure: (§1) GSH and GSSG levels were determined in AGS and PANC1 cells after 3 and 24 h of treatment with the compounds (using H2O2 as a positive control) with the Glutathione Colorimetric Detection Kit (ThermoFisher) following the manufacturer’s instructions. Thirty minutes after adding the Colorimetric Detection Reagent and the Reaction Mixture, the absorbance was read at 405 nm. A standard curve was generated with each assay to interpolate the sample results. To measure GSSG, standards and samples must be diluted with the Sample Diluent containing 2-vinylpyridine.

PANC1 cells [4] = assay: Ratio GSH/GSSG, colorimetric kit; settings: PANC1, C+ (positive control), relative to Control = 1
Procedure: as §1

In the case of OO [H2O2, reference compound], the “Fold change % Senescence” value (AGS cells [1]) is reported as 52.81% and 54.43% and 58.54%, the “DHE fluorescence intensity (per cell), cytosolic O2•−” value (PANC1 cells [2]) is reported as 174.023 and 151.84 and 151.685 and 148.486 and 115.72 and 133.113 and the GSH/GSSG (AGS cells [3]) is reported as 0.8614 and 0.8667 and 0.9484. For the same compound, the GSH/GSSG (PANC1 cells [4]) was 0.5945 and 0.659 and 0.8185.
